{"source": "patent US20140128357A1", "about": "“METHODS OF PRODUCING AND USING BRASSINOSTEROIDS TO PROMOTE GROWTH, REPAIR AND MAINTENANCE OF SKELETAL MUSCLE AND SKIN” (Rutgers University, priority 2010, published 2014)", "key": {"[1]": {"system": "cutaneous wound in C57BL/6J mice", "assay": "Mouse cutaneous injury model of wound healing", "assay_type": "in vivo", "settings": "10 μg/mouse/day topically for 10 days", "experimental": "Under volatile anesthesia (5% isoflurane to effect), the shoulder and back region of each animal was shaved. A sharp punch (ID 6 mm) over their lumbar spine was applied to remove the skin, including panniculus carnosus and adherent tissues. Test substances were administered topically (TOP), immediately following cutaneous injury, once daily for 10 consecutive days. […] Wounds were traced onto clear plastic sheets and were measured by use of an ImageJ program (rsbweb.nih.gov/ij/), online from the National Institutes of Health (NIH). ImageJ is a public domain, Java-based image processing program developed at the NIH. Time to wound closure was estimated by comparing the area of the wound undergoing treatment to the areas of the wound undergoing control treatments. The percent closure of the wound (%) was calculated, and wound half-closure time (the time at which 50% of the cutaneous wound is closed, CT50) was analyzed by linear regression using Graph-Prism (Graph Software USA). At the end of experiment (10 days after the induction of the wound), animals were euthanized by CO2 gas inhalation. Blood was collected by heart puncture. Wound tissue and muscle were collected for immunohistochemical analyses and wound healing factor assays. HB increased the percent of wound closure in vivo in a mouse model of wound closure (FIG. 13). […] Twenty seven six-week-old male C57BL/6J mice, obtained from the Jackson Laboratory (Bar Harbor, Me.), were housed in individual chambers in a room maintained at a constant temperature with 12 h light-dark cycle. Mice had free access to food and water. Mice were allowed to adapt to new conditions for seven days and handling the mice was performed daily during this time to reduce the stress of physical manipulation. Mice were randomized into groups (n=9) according to body weight one day prior to dosing. Under volatile anesthesia (5% isoflurane to effect), the shoulder and back region of each animal was shaved. A sharp punch (ID 6 mm) over lumbar spine was applied to remove the skin including panniculus carnosus and adherent tissues. […] Pharmacol. 77: 1117-1124, 2009) as a positive control) was administered topically, immediately following cutaneous injury, and then daily for 10 days. To investigate the kinetics of wound healing, wound size was photographed and measured every two days with ImageJ software (rsbweb.nih.gov/ij/). […] The percent closure of the wound (%) was calculated, and time at which 50% of the cutaneous wound was closed (CT50) was analyzed by linear regression. […] Wound sizes were photographed and measured every 2 days for 10 days. Wound closure (%) relative to day 1 was determined every 2 days, and CT50 was calculated by linear regression. […]"}, "[2]": {"system": "TNF-α, TGF-β and ICAM-1 mRNA in wounds", "assay": "Cytokine and chemokine mRNA in wound tissue, qPCR", "assay_type": "in vivo", "settings": "day 10 post-wounding, 10 μg/mouse topically", "experimental": "Cutaneous would healing is characterized by an initial inflammatory response. To evaluate the effect of brassinosteroids on inflammation in wound healing, mRNA levels of proinflammatory cytokines TNF-α and TGF-β and an adhesion chemokine ICAM-1 were measured in the wound tissue of control and treated mice on day 10 post-wounding and treatment with HB, positive control (CGS-21680), or negative control (vehicle).\nTotal RNA was extracted from fibroblasts using Trizol (Invitrogen, Carlsbad, Calif.). RNA was quantified spectrophotometrically by absorbance measurements at 260 and 280 nm using the NanoDrop reader (NanoDrop Technologies, Wilmington, Del.). Quality of RNA was assessed by gel electrophoresis. RNA was then treated with DnaseI (Invitrogen, Carlsbad, Calif.) to remove traces of DNA contamination and the cDNAs were synthesized with 2.5 μg of RNA using Stratascript reverse transcriptase (Stratagene, Santa Clara, Calif.) according to the manufacturers' protocols. Quantitative PCR was performed in duplicate essentially as described previously (Komarnytsky et al., Int. J. Obes. 35: 236-43, 2011) using the following gene-specific primers (IDT, Coralville, Iowa) selected using the Primer Express 2.0 software (Applied Biosystems, Foster City, Calif.): β-actin, forward primer 5′-GGGAAATCGTGCGTGACATT-3′ (SEQ ID NO: 5), and reverse primer 5′-GCG GCA GTG GCC ATC TC-3′ (SEQ ID NO: 6). Target gene expression of the housekeeping gene β-actin was assigned a value of 1. Samples were subjected to a melting curve analysis to confirm the amplification specificity. The relative change in the […] with respect to the endogenous control gene was determined using 2ΔΔCT method (Winer et al., Anal. Biochem. 270: 41-9, 1999)."}, "[3]": {"system": "elastin mRNA in human neonatal dermal fibroblasts (HNDF)", "assay": "Elastin gene expression in human dermal fibroblasts, qPCR", "assay_type": "cell-based", "settings": "16 h", "experimental": "Human neonatal dermal fibroblasts (HNDF) were maintained in DMEM+10% FBS and were kept in a humidified 37° C. incubator with 5% CO2. Cells were plated at a density of 1×10^4 cells per well in a 24-well plate and incubated for 24 h, or until 100% confluency was reached. Subsequently, the media was removed and cells were washed with 500 μL PBS twice to remove detached cells or cell debris. HNDF were then treated for 16 h as follows: DMEM only, retinoic Acid 5 μM, retinoic acid 10 μM, Homocastasterone 5 μM and Homocastasterone 10 μM.\nRNA was extracted from HNDF using Trizol reagent (Invitrogen) following manufacturer instructions. RNA was quantified spectrophotometrically by absorbance measurements at 260 nm and 280 nm using the NanoDrop system (NanoDrop Technologies, Wilmington, Del.). Quality of RNA was assessed by separation in gel-electrophoresis. To remove any traces of DNA contamination, RNA was then treated with Dnase I (Invitrogen) following the manufacturer guidelines. Complementary DNAs (cDNAs) were synthesized using 3.0 μg of RNA for each sample using Applied Biosystems High Capacity cDNA Reverse Transcription Kit following the manufacturer's protocol.\nQuantitative RT-PCR (qPCR) amplifications were carried out in triplicate on an ABI 7300 Real-Time Detection System in a total volume of 25 μl containing 12.5 μl Brilliant SYBR® Green PCR master mix (Applied Biosystems), 5 μl of the 1:25 diluted cDNA, 0.5 μl of 6 μM gene-specific primers (IDT, Coralville, Iowa) and […] PCR-grade water. Primers were synthesized by Integrated DNA Technologies, Inc. (Coralville, Iowa, USA) as follows: β-actin, forward primer 5′-ACGTTGCTATCCAGGCTGTGCTAT-3′ (SEQ ID NO: 1), reverse primer 5′-CTCGGTGAGGATCTTCATGAGGTAGT-3′ (SEQ ID NO: 2); elastin, forward primer 5′-AAGCAGCAGCAAAGTTCGGT-3′ (SEQ ID NO: 3), and reverse primer 5′-ACTAAGCCTGCAGCAGCTCCATA-3′ (SEQ ID NO: 4). qPCR amplifications were performed on the 7300 Real Time PCR System (A&B Applied Biosystems) using 1 cycle at 50° C. for 2 min, 1 cycle at 95° C. for 10 min, followed by 40 cycles of 15 s at 95° C. and 1 min at 60° C. The dissociation curve was completed with one cycle of 15 s at 95° C., 1 min at 60° C., and 15 s of 95° C. No RT (NRT) and no template control (NTC) were included in each experiment as quality control steps. Target mRNA expression was analyzed using the ΔΔCt method and normalized with respect to the expression of the β-actin housekeeping gene. Cells treated with DMEM only (negative control) served as the calibrator sample in this study, and a value of 1.0 was assigned to the target gene expression of the calibrator sample. All samples were run in triplicate. A p value of 0.001 was considered to be significant."}, "L6 rat myotubes": {"system": "L6 rat myotubes", "assay": "Protein synthesis, [3H]-phenylalanine incorporation in myotubes", "assay_type": "cell-based", "settings": "IGF-1 6.5 nM positive control, 4 h", "experimental": "In some aspects, cell culture experiments were carried out. Rat L6 skeletal muscle cell line CRL-1458 was obtained from ATCC (Manassas, Va.). Myoblasts were routinely maintained in Dulbecco's modified Eagle's medium (DMEM) containing 10% FBS and 0.1% penicillin-streptomycin at 37° C. and 5% CO2. Cells were subcultured into 24-well plates for protein synthesis, degradation, and cell viability studies and into 6-well plates for Western blot analyses (Greiner Bio One, Monroe, N.C.). Once cells reached 90% confluence, differentiation was induced by lowering the serum concentration to 2%, and medium was changed every 2 days. After 7-9 days of culture the myoblasts had fused into multinucleated myotubes (Mandel et al., Nature 251:618-620, 1974). NIH 3T3 murine embryonic fibroblast cell line (ATCC #CCL-92) was maintained in DMEM and 10% FBS at 37° C. in 5% CO2, and passaged every 3-4 days.\nIn various aspects, protein synthesis is measured to determine the effect of brassinosteroid on a particular protein. All known methods for measuring protein synthesis are included in the methods of the disclosure. In brassinosteroid dose response studies, fully differentiated myotubes were washed with serum-free DMEM and treated in triplicate with vehicle (0.1% ethanol), increasing concentrations of HB, or 6.5 nM of insulin-like growth factor-1 (IGF-1) as a positive control. Compounds were added to serum-free medium containing 0.5 μCi/mL [^3H]-phenylalanine and incubated for 4 h. For the HB time course study, fully differentiated myotubes were treated with 3 μM HB for 1-24 h using the same culture conditions. The incubation was stopped by placing cells on ice, discarding the medium, and washing the cells extensively with ice-cold PBS to remove the non-incorporated radiolabel. Proteins were precipitated with 5% trichloroacetic acid and dissolved in 0.5N NaOH (Montgomery et al., Methods Cell. Sci. 24:123-129, 2002). Specific radioactivity of protein-bound phenylalanine was quantified using liquid scintillation counter LS 6500 (Beckman Coulter, Fullerton, Calif.) and normalized to mg of total protein determined by BCA protein assay (Pierce Biotechnology, Rockford, Ill.).\nThe bioactivity of HB and its analogs was evaluated by measuring increases in protein synthesis in the L6 rat skeletal muscle cells in vitro. Cells were incubated for 4 h with [^3H]-phenylalanine and treated in triplicate with vehicle (0.1% ethanol) or test compound (10 μM), and protein synthesis was measured as incorporation of [^3H]-phenylalanine into protein normalized by total protein (Table 3). Under these conditions, both HB and (22S,23S)-homocastasterone increased protein synthesis by 37.2±5.9% (p<0.001) and 41.0±2.7% (p<0.001), respectively. This protein synthesis increase compared favorably to the biological activity of IGF-1 at 6.5 nM (42.5±4.5%, p<0.001) that served as a positive control in this assay. Removal of the 2α-hydroxyl group and fluorination at C-3 in the A ring (compound IDs 3-4 in Table 3) led to about a 50% decrease in bioactivity (24.6±5.3%, p<0.01 and 22.5±2.7%, p<0.01, respectively) compared to the positive control. However, there was still an increase in protein synthesis. […] Modifications in the side chain (compound IDs 7-9 in Table 3) abolished the activity."}, "[4]": {"system": "AKT (Ser473) phosphorylation in L6 myotubes", "assay": "AKT (Ser473) phosphorylation, Western blot", "assay_type": "cell-based, rat", "experimental": "In some aspects, Western blot analyses were carried out. Fully differentiated L6 myotubes were cultured as described above, and whole cell extracts were prepared in ice-cold RIPA buffer supplemented with 10 mM sodium fluoride, 2 mM sodium orthovanadate, 1 mM PMSF, and protease inhibitor cocktail (Sigma) and centrifuged at 12,000 g for 20 min at 4° C. Equal amounts of protein (50 μg) from the supernatants were separated on 10% SDS polyacrylamide gels and blotted onto the nitrocellulose membrane. Western blot detection was carried out with monoclonal phospho-AKT (Ser473) antibodies according to the manufacturer's instructions (Cell Signaling Technology, Danvers, Mass.). After being washed, the blots were incubated with an anti-rabbit peroxidase-labeled secondary antibody and visualized using ECL Western Blotting Detection Reagent (GE Healthcare, Piscataway, N.J.). After being stripped, the same blots were probed with total AKT antibodies to serve as loading controls."}}, "note": "Marks after values point to notes of the source that are not given here."}
{"compound": "CCNC(=O)[C@H]1O[C@@H](n2cnc3c(N)nc(NCCc4ccc(CCC(=O)O)cc4)nc32)[C@H](O)[C@@H]1O", "note": "[CGS-21680, reference compound]", "values": [{"measurement": "CT50, time at which 50% of the cutaneous wound is closed", "setting": "[1]", "result": "6.2 ± 0.4", "unit": "days"}, {"measurement": "ICAM-1 mRNA in wound tissue", "setting": "[2]", "result": "no effect"}, {"measurement": "TGF-β mRNA in wound tissue", "setting": "[2]", "result": "no effect"}, {"measurement": "TNF-α mRNA in wound tissue", "setting": "[2]", "result": "remarkable suppression"}]}
{"compound": "CC1=C(/C=C/C(C)=C/C=C/C(C)=C/C(=O)O)C(C)(C)CCC1", "note": "[Retinoic Acid, reference compound]", "values": [{"measurement": "Increase in elastin mRNA levels (-fold over control)", "setting": "[3]; 5 μM", "result": "2.9** fold"}, {"measurement": "Increase in elastin mRNA levels (-fold over control)", "setting": "[3]; 10 μM", "result": "2.7** fold"}]}
{"compound": "IGF-1: Insulin-like growth factor 1, positive control for protein synthesis", "values": [{"measurement": "Protein synthesis (% increase over control)", "setting": "L6 rat myotubes", "result": "42.5±4.5", "unit": "%"}, {"measurement": "time to AKT phosphorylation", "setting": "[4]", "result": "≤ 10", "unit": "min"}]}
